Measurements reported in paper PMC11171218, “N-Benzylated 5-Hydroxybenzothiophene-2-carboxamides as Multi-Targeted Clk/Dyrk Inhibitors and Potential Anticancer Agents” (Cancers, 2024).

Columns and labels:
HCT-116 cells = assay: CCK-8 cell viability, HCT-116; assay type: cell-based; conditions: Homo sapiens, 72 h; for inhibition at 20 µM: HCT-116, read-out: HCT-[…] Inh. at 20 μM, CCK-8, mean ± S.E.M. (n = 3); for IC50: HCT-116, read-out: HCT-116 IC50 in µM, CCK-8, 50% inhibition of viability
Method: (§1) All cells were purchased from Bioresource Collection and Research Center (Hsinchu, Taiwan) and cultured in corresponding media supplemented with 10% fetal bovine serum, 1 × Antibiotic-Antimycotic at 37 °C in a humidified incubator with 5% CO2. […] T24 cells were cultured in McCoy’s 5a media. IEC-6 cells were cultured in DMEM media supplemented with 5% fetal bovine serum, 1 × Antibiotic–Antimycotic, and 0.1 unit/mL insulin.
(§2) Cells were incubated with the Cell Counting Kit-8 (CCK-8) reagent (TargetMol, Boston, MA, USA) at 37 °C for 2 h. The cell viability was determined by spectrophotometer at 450 nm.

Dyrk1A = Dyrk1A (Homo sapiens, UniProt Q13627); assay: Z'-LYTE kinase inhibition assay, Dyrk1A; assay type: biochemical; conditions: for IC50: ATP conc. equivalent to Km; for inhibition at 1 µM: read-out: Dyrk1A % Inh. At 1 µM
Text: 3. Experimental procedure for protein kinases and inhibition assays.
3.1 The Z ́ -LYTE biochemical assay for screening and IC 50 determination for Clk1, Dyrk1A, Dyrk1B, Clk2 and Clk3 kinases.
The assay employs a fluorescence-based, coupled-enzyme format and is based on the differential sensitivity of phosphorylated and non-phosphorylated peptides to proteolytic cleavage. The peptide substrate is labeled with two fluorophores-one at each end-that make up a FRET pair. In the primary reaction, the kinase transfers the gamma-phosphate of ATP to a single tyrosine, serine, or threonine residue in a synthetic FRET-peptide. In the secondary reaction, a site-specific protease recognizes and cleaves non-phosphorylated FRET-peptides. Phosphorylation of FRET-peptides suppresses cleavage by the Development Reagent. Cleavage disrupts FRET between the donor (i.e., coumarin) and acceptor (i.e., fluorescein) fluorophores on the FRET-peptide, whereas uncleaved, phosphorylated FRET-peptides maintain FRET. A ratiometric method, which calculates the ratio (the Emission Ratio) of donor emission to acceptor emission after excitation of the donor fluorophore at 400 nm, is used to quantitate reaction progress. Both cleaved and uncleaved FRET-peptides contribute to the fluorescence signals and therefore to the Emission Ratio. The extent of phosphorylation of the FRET-peptide can be calculated from the Emission Ratio. The Emission Ratio will remain low if the FRET-peptide is phosphorylated (i.e., no kinase inhibition) and will be high if the FRET-peptide is non-phosphorylated (i.e., kinase inhibition).
The IC 50 values were determined for compounds displaying significant % inhibition in the screening step. IC 50 determination was done through testing at a range of concentrations with two […]
two independent experiments. […]
3.1.2 Dyrk1A kinase assay specific conditions:
The 2x Dyrk1A / Ser/Thr 18 mixture is prepared in 50 mM HEPES pH 7.5, 0.01% BRIJ-35, 10 […]
2 µM Ser/Thr 18 in 50 mM HEPES pH 7.5, 0.01% BRIJ-35, 10 mM MgCl 2, 1 mM EGTA. […]
Development Reagent A is added. […]
MgCl2, 1 mM EGTA, 0.02% NaN3. […]

Hela cells = assay: CCK-8 cell viability, Hela; assay type: cell-based; conditions: Homo sapiens, 72 h; for inhibition at 20 µM: CCK-8, mean ± S.E.M. (n = 3), read-out: Hela % Inh. at μM; for IC50: CCK-8, 50% inhibition of viability
Method: as §1, §2

GSG2 (Haspin) = target: T1, GSG2 (Haspin) (Homo sapiens, UniProt Q8TF76); assay: Adapta universal kinase assay, Haspin; assay type: biochemical; conditions: for inhibition at 1 µM: 1 µM compound, screening by Thermo Fisher Scientific; for IC50: ATP concentration equivalent to Km (25 μM ATP)
T1 construct: purchased Thermo Fisher Scientific, Madison, WI, USA (assay run there)
T1 sequence (Q8TF76 1-798): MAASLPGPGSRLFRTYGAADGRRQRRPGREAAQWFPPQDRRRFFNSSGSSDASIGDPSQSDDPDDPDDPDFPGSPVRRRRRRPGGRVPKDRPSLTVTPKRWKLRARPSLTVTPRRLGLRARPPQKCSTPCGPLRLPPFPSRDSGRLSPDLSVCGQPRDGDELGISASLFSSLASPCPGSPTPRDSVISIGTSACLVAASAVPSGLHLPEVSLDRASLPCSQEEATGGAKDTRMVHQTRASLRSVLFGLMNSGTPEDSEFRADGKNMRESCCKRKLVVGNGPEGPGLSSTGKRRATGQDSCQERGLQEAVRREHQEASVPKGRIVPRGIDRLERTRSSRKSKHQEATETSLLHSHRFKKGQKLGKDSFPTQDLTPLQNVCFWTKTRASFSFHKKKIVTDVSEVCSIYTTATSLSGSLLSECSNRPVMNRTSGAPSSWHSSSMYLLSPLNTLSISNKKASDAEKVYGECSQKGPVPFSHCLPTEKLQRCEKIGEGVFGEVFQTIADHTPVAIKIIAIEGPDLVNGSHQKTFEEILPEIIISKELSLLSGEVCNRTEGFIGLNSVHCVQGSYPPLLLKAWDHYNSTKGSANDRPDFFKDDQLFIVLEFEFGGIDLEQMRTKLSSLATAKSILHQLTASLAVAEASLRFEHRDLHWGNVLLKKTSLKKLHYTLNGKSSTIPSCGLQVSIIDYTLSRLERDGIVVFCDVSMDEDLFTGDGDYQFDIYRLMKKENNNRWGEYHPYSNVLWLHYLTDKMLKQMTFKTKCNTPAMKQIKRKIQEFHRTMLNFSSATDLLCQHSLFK
Method: 3.2 The Adapta universal kinase assay for screening and IC 50 determination against haspin.
The haspin kinase assay was done at Thermo Fisher Scientific, Madison, WI, USA using a fluorescence-based immunoassay known as ‘The Adapta Universal Kinase Assay’, which detects the ADP produced by kinases utilizing the TR-FRET technology. The final 10 μL kinase reaction consists of 0.25 - 1 ng GSG2 (Haspin) and 100 μM of the substrate (Histone H3 (1-20) peptide) in […]
μM ATP. After an incubation time of 1 h at RT, 5 μL of a detection mix was added.
To determine the half maximal inhibitory concentration (IC 50), the assays were performed in duplicate in the absence or presence of increasing doses of the tested compounds.

[1] = Cell viability in normal cells, IEC-6; assay type: cell-based; conditions: rat, IEC-6 rat intestine epithelial cells (normal cells); for viability at 20 µM: mean (n = 3); for IC50: 50% inhibition
Method: as §1, §2

SMILES | inhibition at 20 µM (HCT-116 cells) | IC50 (Dyrk1A) | inhibition at 1 µM (Dyrk1A) | inhibition at 20 µM (Hela cells) | melting point | inhibition at 1 µM (GSG2 (Haspin)) | IC50 (GSG2 (Haspin)) | IC50 (Hela cells) | IC50 (HCT-116 cells) | viability at 20 µM [1] | IC50 [1]
O=C(NCc1cccc(Cl)c1)c1cc2cc(O)ccc2s1 [Compound 3, N-(3-Chlorobenzyl)-5-hydroxybenzo[b]thiophene-2-carboxamide] | 25.9 ± 2.54% | 751 nM | 60% | 50.5 ± 3.93% | 211.2 to 212.3 °C | 54% |  |  |  |  | 
O=C(NCc1cccc(F)c1)c1cc2cc(O)ccc2s1 [Compound 6, N-(3-Fluorobenzyl)-5-hydroxybenzo[b]thiophene-2-carboxamide] | 60.1 ± 3.11% | 666 nM | 60% | 53.3 ± 2.22% | 176.7 to 177.7 °C | 83% | 207 nM |  |  |  | 
COc1ccccc1CNC(=O)c1cc2cc(O)ccc2s1 [Compound 11, 5-Hydroxy-N-(2-methoxybenzyl)benzo[b]thiophene-2-carboxamide] | 0% | 565 nM | 64% | 62.1 ± 1.97% | 128.5 to 130.7 °C | 46% |  | 19300 nM |  |  | 
COc1cccc(CNC(=O)c2cc3cc(O)ccc3s2)c1 [Compound 12, 5-Hydroxy-N-(3-methoxybenzyl)benzo[b]thiophene-2-carboxamide] | 75.7 ± 0.31% | 536 nM | 65% | 50.7 ± 2.41% |  | 85% | 167 nM |  | 6.4 µM | 96% | > 20000 nM
O=C(NCc1cc(F)cc(F)c1)c1cc2cc(O)ccc2s1 [Compound 17, N-(3,5-Difluorobenzyl)-5-hydroxybenzo[b]thiophene-2-carboxamide] | 67.6 ± 0.58% | 495 nM | 67% | 60.9 ± 2.82% |  | 80% | 256 nM | 18100 nM | 8.1 µM | 76.8% | > 20000 nM
